Assay results published in US20220169637A1, “SOLID FORMS OF ENCEQUIDAR MESYLATE AND PROCESSES THEREOF” (DR. REDDY'S LABORATORIES LIMITED, priority 2019, published 2022).
Where a name gives a salt, the structure may show the parent alone.

Assay: Stress stability of crystalline Form EM1 (moisture content, XRPD pattern)
Assay type: physicochemical
Method: In an embodiment, the open sample of Form EM1 is stable at 25° C. for at least 24 hours. In an embodiment, the open sample of Form EM1 is stable under heating in air tray drier at 60° C. for at least 24 hours. In an embodiment, the open sample of Form EM1 is stable at 40° C. and 75% RH condition for at least 24 hours. In an embodiment, the open sample of Form EM1 is stable at 25° C. and 85% RH for at least 24 hours. In an embodiment, the open sample of Form EM1 is stable under UV exposure for at least 16 hours.

- Moisture content (%) (Initial): 6.95%
- XRPD pattern (Initial): Form EM1
- Moisture content (%) (Open 25° C., 24 hours): 5.94%
- XRPD pattern (Open 25° C., 24 hours): Form EM1
- Moisture content (%) (Open 40° C./75% RH, 24 hours): 5.71%
- XRPD pattern (Open 40° C./75% RH, 24 hours): Form EM1
- Moisture content (%) (Open 60° C., 24 hours): 5.5%
- XRPD pattern (Open 60° C., 24 hours): Form EM1
- Moisture content (%) (UV exposed, 24 hours): 6.26%
- XRPD pattern (UV exposed, 24 hours): Form EM1
- Time stable (open sample at 25° C.): at least 24 hours
- Time stable (open sample at 25° C. and 85% RH): at least 24 hours
- Time stable (open sample at 40° C. and 75% RH): at least 24 hours
- Time stable (open sample under UV exposure): at least 16 hours
- Time stable (open sample, heating in air tray drier at 60° C.): at least 24 hours
- Stability under tabulated stress conditions (stress conditions for 24 hours): found to be stable
- Change in weight or moisture content and X-ray diffraction patterns (stressed samples, FIG. 5): No significant change
SMILES: COc1cc2c(cc1OC)CN(CCc1ccc(-n3nnc(-c4cc(OC)c(OC)cc4NC(=O)c4cc(=O)c5ccccc5o4)n3)cc1)CC2 [Form EM1, Encequidar mesylate]
